Reference: publication doi:10.1101/2025.02.17.638454, “Synergistic RAS-MAPK and AKT Activation in MYC-Driven Tumors via Adjacent PVT1 Rearrangements” (bioRxiv, 2025)
No end group written: not given here.

Tests used:
[1] = system: phospho-MEK1/2, phospho-ERK1/2, phospho-p90RSK (RAS/MAPK pathway); experiment: Western blot of RAS/MAPK effectors in NCI-H1792; assay type: cell-based; settings: NCI-H1792 (mutant KRAS^G12C), doxycycline-induced HNB, 1 μg/mL Dox 48 h
Protocol: (§1) For whole-cell lysate, the cell pellet was resuspended in RIPA buffer (Cell Signaling Technologies, Danvers, MA) supplemented with a protease inhibitor cocktail (Cell Signaling Technologies) and incubated on ice for 20 minutes. The lysate was then centrifuged at 14,000 revolutions/minute for 10 minutes at 4°C, and the supernatant was harvested. Protein concentration was quantified by BCA Protein Assay Kit (Thermo Fisher Scientific) as per kit protocol. Next, 20 μg of whole-cell lysate was electrophoresed on a 4%–20% gradient polyacrylamide gel with SDS (Bio-Rad, Hercules, CA) and electroblotted onto polyvinylidene difluoride membranes (Bio-Rad). Membranes were blocked in Tris-buffered saline with 5% nonfat milk and 0.1% Tween and probed with antibodies. Bound proteins were detected with horseradish-peroxidase–conjugated secondary antibodies (Cell Signaling Technologies) and SuperSignal West Femto (Thermo Fisher Scientific). […]
The HNB ORF and eGFP (control) were cloned in an inducible lentivirus expression, TRE-gateway plasmid (pLIX_403, Addgene, #41395). […] The protein lysates were collected and quantified using the previously described protocol. […] Bound proteins were detected with horseradish-peroxidase–conjugated secondary antibodies (Cell Signaling Technologies) and SuperSignal West Femto (Thermo Fisher Scientific). […]

[2] = system: HALLMARK_MTORC1_SIGNALING; experiment: GSEA MTORC1 signaling, COLO320DM; assay type: cell-based, human; settings: si.CircPVT1 vs si.Ctrl, n=3, Padj = 0.0188
Description: RNAseq processing: Raw reads were mapped to the hg19 human reference genome using the STAR aligner (v.2.5.0a) 66. PCR-duplicated reads and low mapping quality reads (MQ score below 20) were removed using Picard tools and SAMtools, respectively. Aligned reads were counted using htseq-count (v.0.6.1p1) 69 and normalized according to size factors method from DESeq2 70. We used fold change ≥2 and FDR <0.05 as the determination of differentially expressed genes (DEG). Statistical analysis and plots were performed inside R environment version 3.1.0. upload files) […]
bioRxiv preprint doi: https://doi.org/10.1101/2025.02.17.638454; this version posted February 22, 2025. The copyright holder for this preprint (which was not certified by peer review) is the author/funder, who has granted bioRxiv a license to display the preprint in perpetuity. It is made available under a CC-BY 4.0 International license . […]
Supplementary Figure 11: Gene set enrichment analysis scores (GSEA) analysis of genes involved in MTORC 1 signaling in COLO320DM (A) and SK-PN-DW (B) treated with si.CircPVT 1. si.Ctrl was used as control. n=3, for each treatment condition .
(also on this page, place not known: SK-PN-DWB MTORC1 si.CircPVT1. condition. Enrichment Score Enrichment Score .CC-BY licenseavailable preprintthis https://doi.org/10.1101/2025.02.17.638454doi:) […]

MYC targets genes = experiment: GSEA MYC targets, D458; assay type: cell-based, human; settings: D458, si.CircPVT1 vs si.Ctrl, n=3
Description: RNAseq processing: Raw reads were mapped to the hg19 human reference genome using the STAR aligner (v.2.5.0a) 66. PCR-duplicated reads and low mapping quality reads (MQ score below 20) were removed using Picard tools and SAMtools, respectively. Aligned reads were counted using htseq-count (v.0.6.1p1) 69 and normalized according to size factors method from DESeq2 70. We used fold change ≥2 and FDR <0.05 as the determination of differentially expressed genes (DEG). Statistical analysis and plots were performed inside R environment version 3.1.0. upload files)

MYC = experiment: Western blot of MYC in SK-PN-DW; assay type: cell-based, human; settings: si.CircPVT1 vs si.Ctrl, n=3, unpaired t test, 0.0049
Protocol: as §1

Substance | phosphorylation of MEK1/2, ERK1/2 and p90RSK [1] | NES, HALLMARK_MTORC1_SIGNALING [2] | MYC targets (GSEA) (MYC targets genes) | MYC protein (MYC)
MKTQLGAVKGFLHV [HNB] | significantly dampened the phosphorylation |  |  | 
si.CircPVT1: siRNA targeting the junction sequence of CircPVT1, 5’-UGGGCUUGAGGCCUGAUCUUU-3’ (other strand not given here) |  | -1.506 | depletion of MYC targets | significant reduction of MYC protein
